{"source": "patent US20230025880A1", "about": "“FUSED TRICYCLIC COMPOUND AND MEDICINAL USE THEREOF” (JAPAN TOBACCO INC., priority 2020, published 2023)", "data": [{"molecular_target": "T1, human PDHK2 (hPDHK2) (Homo sapiens, UniProt Q15119)", "T1 construct": "made in house; host or cells: Escherichia coli BL21(DE3), pET-17b vector", "test": "Inhibitory action of PDHK2 activity (residual PDH activity, NADH absorbance at 340 nm)", "type": "biochemical", "conditions": "PDH/hPDHK2 complex, PDHK reaction 45 min at room temperature", "method": "In the case of human PDHK2 (hPDHK2, NCBI Reference Database Accession number NM_002611.4), modified hPDHK2 cDNA wherein FLAG-Tag sequence was added to the N terminus of hPDHK2 cDNA clone (pReceiver-M01/PDK2-GeneCopoeia) as the base was prepared by polymerase chain reaction (PCR) and ligated to the NdeI/EcoRI site of pET-17b vector (Merck KGaA, Catalog Number 69663-3). The recombinant construct was transformed into Escherichia coli DH5α. The recombinant clones were identified, and plasmid DNA was isolated and subjected to the DNA sequence analysis. One clone which had the expected nucleic acid sequence was selected for expression work.\nFor expression of hPDHK2 activity, Escherichia coli strain BL21(DE3) cells (Merck KGaA, Catalog Number 69450-4) were transformed with the pET17b vector containing modified hPDHK2 cDNA. The Escherichia coli were grown to an optical density 0.6 ([…]) at 30° C. Protein expression was induced by the addition of 500 μmol/L isopropyl-β-thiogalactopyranoside. The Escherichia coli were cultured at 20° C. for 17-18 hr and harvested by centrifugation. The harvested Escherichia coli was resuspended in a suspension buffer (20 mmol/L HEPES-NaOH, 500 mmol/L sodium chloride, 1% ethylene glycol, 0.1% Pluronic (registered trademark) F-68 (pH 8.0), cOmplete, EDTA-free (Roche) (pH 8.0)), and disrupted by a microfluidizer M-110H (MIZUHO INDUSTRIAL CO., LTD.). The precipitate was removed by centrifugation and the supernatant was added to DDDDK-tagged Protein PURIFICATION GEL (MEDICAL & BIOLOGICAL LABORATORIES CO., LTD., Code No. 3329). DDDDK-tagged Protein PURIFICATION GEL was washed with a washing buffer (20 mmol/L HEPES-NaOH, 500 mmol/L sodium chloride, 1% ethylene glycol, 0.1% Pluronic F-68 (pH 8.0)) and the bound protein was eluted with elution buffer 1 (20 mmol/L HEPES-NaOH, 100 μg/mL peptide (amino acid sequence DYKDDDDK) (SEQ ID NO: 1), 500 mmol/L sodium chloride, 1% ethylene glycol, 0.1% Pluronic F-68 (pH 8.0)). The eluted fractions containing FLAG-Tagged protein were pooled, concentrated by an ultrafiltration method, added to a gel filtration column (HiLoad 26/60 Superdex 200 (GE Healthcare Life Sciences, Code No. 17-1070-01)), and eluted with elution buffer 2 (20 mmol/L HEPES-NaOH, 150 mmol/L sodium chloride, 0.5 mmol/L ethylenediaminetetraacetic acid (EDTA), 1% ethylene glycol, 0.1% Pluronic F-68 (pH 8.0)). The eluted fractions were pooled and preserved at −80° C.\nPDH (porcine heart PDH complex, Sigma P7032) and 0.5 μg/mL hPDHK2 were mixed in an assay buffer (50 mmol/L 3-morpholinopropanesulfonic acid (pH 7.0), 20 mmol/L dipotassium hydrogen phosphate, 60 mmol/L potassium chloride, 2 mmol/L magnesium chloride, 0.4 mmol/L EDTA, 0.2% poloxamer, 2 mmol/L dithiothreitol) so that the final concentration of PDH was 0.025 U/mL, and the mixture was incubated at 4° C. overnight to obtain a PDH/hPDHK2 complex solution.\nPDH was mixed with the assay buffer so that the final concentration was 0.025 U/mL, and the mixture was incubated at 4° C. overnight to prepare a PDH solution.\nThe test compounds were diluted with DMSO. To measure an inhibitory action of the test compound on the PDHK activity in the PDH/hPDHK2 complex solution, PDH/hPDHK2 complex solution (20 μL), test compound (1.5 μL) and 1.06 μmol/L ATP (diluted with assay buffer) (8.5 μL) were added to a 384 well microplate (Greiner Bio-One 781801) and PDHK reaction was performed at room temperature for 45 min (test compound well). DMSO (1.5 μL) was added to control wells instead of test compound. In addition, DMSO (1.5 μL) was added to blank wells instead of the test compound, and PDH solution was added instead of the PDH/hPDHK2 complex solution. To measure an inhibitory action of the test compound on the PDHK activity inherent in the PDH solution, a test compound was added and the PDH solution instead of the PDH/hPDHK2 complex solution was added to a blank+test compound well. […]", "units": {"IC50": "nM"}, "values": [{"smiles": "C[C@H]1Cn2ncc(F)c2-c2cnc([C@@](C)(O)C(F)(F)F)n21", "note": "[Example 44]", "IC50": 17}, {"smiles": "C[C@H]1Cn2nc(OCC(F)F)cc2-c2cnc([C@@](C)(O)C(F)(F)F)n21", "note": "[Example 46]", "IC50": 13}, {"smiles": "C[C@H]1Cn2nc(Oc3ccc(C#N)cn3)cc2-c2cnc([C@@](C)(O)C(F)(F)F)n21", "note": "[Example 47]", "IC50": 20}, {"smiles": "C[C@H]1Cn2nc(OCF)cc2-c2cnc([C@@](C)(O)C(F)(F)F)n21", "note": "[Example 48]", "IC50": 14}, {"smiles": "C[C@H]1Cn2nc(OCc3ccc(C#N)cc3)cc2-c2cnc([C@@](C)(O)C(F)(F)F)n21", "note": "[Example 49]", "IC50": 8.8}, {"smiles": "C[C@H]1Cn2nc(OCC3(C#N)CC3)cc2-c2cnc([C@@](C)(O)C(F)(F)F)n21", "note": "[Example 51]", "IC50": 17}, {"smiles": "C[C@H]1Cn2nc(OCC(C)(C)O)cc2-c2cnc([C@@](C)(O)C(F)(F)F)n21", "note": "[Example 52, (R)-1,1,1-trifluoro-2-((S)-9-(2-hydroxy-2-methylpropoxy)-5-methyl-5,6-dihydroimidazo[1,5-a]pyrazolo[5,1-c]pyrazin-3-yl)propan-2-ol]", "IC50": 21}, {"smiles": "C[C@H]1Cn2nc(OCC(=O)N3CC(F)(F)C3)cc2-c2cnc([C@@](C)(O)C(F)(F)F)n21", "note": "[Example 53]", "IC50": 13}, {"smiles": "C[C@H]1Cn2c(-c3ccc(C(F)(F)F)cc3)nnc2-c2cnc([C@@](C)(O)C(F)(F)F)n21", "note": "[Example 54]", "IC50": 9.3}, {"smiles": "C[C@H]1Cn2nc(OC(C)(C)C)cc2-c2cnc([C@@](C)(O)C(F)(F)F)n21", "note": "[Example 55]", "IC50": 16}, {"smiles": "C[C@H]1Cn2c(-c3ccc(F)cc3C(F)(F)F)nnc2-c2cnc([C@@](C)(O)C(F)(F)F)n21", "note": "[Example 56]", "IC50": 7}, {"smiles": "C[C@H]1Cn2nc(OCC3(CC#N)CC3)cc2-c2cnc([C@@](C)(O)C(F)(F)F)n21", "note": "[Example 57]", "IC50": 22}, {"smiles": "C[C@H]1Cn2nc(OC3CN(C(=O)c4ccc(F)cc4)C3)cc2-c2cnc([C@@](C)(O)C(F)(F)F)n21", "note": "[Example 58]", "IC50": 8.8}, {"smiles": "CCC(F)(F)c1nnc2n1C[C@H](C)n1c-2cnc1[C@@](C)(O)C(F)(F)F", "note": "[Example 59]", "IC50": 10}, {"smiles": "CC(C)C(F)(F)c1nnc2n1C[C@H](C)n1c-2cnc1[C@@](C)(O)C(F)(F)F", "note": "[Example 60]", "IC50": 6.8}, {"smiles": "C[C@H]1Cn2nc(OCCOC(F)(F)F)cc2-c2cnc([C@@](C)(O)C(F)(F)F)n21", "note": "[Example 61]", "IC50": 14}, {"smiles": "C[C@H]1Cn2c(nnc2C(F)(F)Oc2ccc(F)cc2)-c2cnc([C@@](C)(O)C(F)(F)F)n21", "note": "[Example 62]", "IC50": 6.3}, {"smiles": "C[C@H]1Cn2nc(OCCN3CCCC3=O)cc2-c2cnc([C@@](C)(O)C(F)(F)F)n21", "note": "[Example 63]", "IC50": 14}, {"smiles": "CC(=O)N1CC(COc2cc3n(n2)C[C@H](C)n2c-3cnc2[C@@](C)(O)C(F)(F)F)C1", "note": "[Example 64]", "IC50": 19}, {"smiles": "C[C@H]1Cn2nc(OCC3CN(S(C)(=O)=O)C3)cc2-c2cnc([C@@](C)(O)C(F)(F)F)n21", "note": "[Example 65]", "IC50": 13}, {"smiles": "C[C@H]1Cn2nc(OCC3CN(C(=O)c4ccc(F)cc4)C3)cc2-c2cnc([C@@](C)(O)C(F)(F)F)n21", "note": "[Example 66]", "IC50": 18}, {"smiles": "CC(=O)N1CCC(COc2cc3n(n2)C[C@H](C)n2c-3cnc2[C@@](C)(O)C(F)(F)F)CC1", "note": "[Example 67]", "IC50": 19}, {"smiles": "C[C@H]1Cn2nc(OCC3CCN(S(C)(=O)=O)CC3)cc2-c2cnc([C@@](C)(O)C(F)(F)F)n21", "note": "[Example 68]", "IC50": 14}, {"smiles": "C[C@H]1Cn2nc(OCC3CCN(C(=O)c4ccc(F)cc4)CC3)cc2-c2cnc([C@@](C)(O)C(F)(F)F)n21", "note": "[Example 69]", "IC50": 15}, {"smiles": "C[C@H]1Cn2nc(Oc3cc(C(F)(F)F)ncn3)cc2-c2cnc([C@@](C)(O)C(F)(F)F)n21", "note": "[Example 70]", "IC50": 19}, {"smiles": "CC(=O)N1CCC(Oc2cc3n(n2)C[C@H](C)n2c-3cnc2[C@@](C)(O)C(F)(F)F)CC1", "note": "[Example 71]", "IC50": 26}, {"smiles": "C[C@H]1Cn2nc(Oc3cc(C4CC4)ncn3)cc2-c2cnc([C@@](C)(O)C(F)(F)F)n21", "note": "[Example 72]", "IC50": 12}, {"smiles": "C[C@H]1Cn2c(nnc2C(F)(F)c2ccccc2Cl)-c2cnc([C@@](C)(O)C(F)(F)F)n21", "note": "[Example 73]", "IC50": 7.4}, {"smiles": "C[C@H]1Cn2nc(OCC(F)(F)F)cc2-c2cnc([C@@](C)(O)C(F)(F)F)n21", "note": "[Example 74]", "IC50": 12}, {"smiles": "CC(=O)N1CCC(c2cc3n(n2)C[C@H](C)n2c-3cnc2[C@@](C)(O)C(F)(F)F)CC1", "note": "[Example 75]", "IC50": 19}, {"smiles": "C[C@H]1Cn2nc(OCCN3CCCS3(=O)=O)cc2-c2cnc([C@@](C)(O)C(F)(F)F)n21", "note": "[Example 76]", "IC50": 13}, {"smiles": "C[C@H]1Cn2nc(OC3CCOCC3)cc2-c2cnc([C@@](C)(O)C(F)(F)F)n21", "note": "[Example 77]", "IC50": 17}, {"smiles": "C[C@H]1Cn2nc(OCC3COC3)cc2-c2cnc([C@@](C)(O)C(F)(F)F)n21", "note": "[Example 78]", "IC50": 17}, {"smiles": "C[C@H]1Cn2nc(OCC(C)(C)C#N)cc2-c2cnc([C@@](C)(O)C(F)(F)F)n21", "note": "[Example 79]", "IC50": 15}, {"smiles": "C[C@H]1Cn2nc(OC(C)(C)C(C)(C)O)cc2-c2cnc([C@@](C)(O)C(F)(F)F)n21", "note": "[Example 80]", "IC50": 13}, {"smiles": "C[C@H]1Cn2c(nnc2C2(c3ccc(F)cc3)CC2)-c2cnc([C@@](C)(O)C(F)(F)F)n21", "note": "[Example 81]", "IC50": 7.3}, {"smiles": "C[C@H]1Cn2nc(OCC3CCS(=O)(=O)CC3)cc2-c2cnc([C@@](C)(O)C(F)(F)F)n21", "note": "[Example 82]", "IC50": 23}, {"smiles": "C[C@H]1Cn2nc(OCC3CC4CCC(C3)S4(=O)=O)cc2-c2cnc([C@@](C)(O)C(F)(F)F)n21", "note": "(stereo partly drawn) [Example 83]", "IC50": 16}, {"smiles": "C[C@H]1Cn2nc(OCC(C)(C)S(C)(=O)=O)cc2-c2cnc([C@@](C)(O)C(F)(F)F)n21", "note": "[Example 84]", "IC50": 42}, {"smiles": "C[C@H]1Cn2nc(OCC(O)(C(F)(F)F)C(F)(F)F)cc2-c2cnc([C@@](C)(O)C(F)(F)F)n21", "note": "[Example 85]", "IC50": 23}, {"smiles": "C[C@H]1Cn2nc(Oc3ccnc(C(F)(F)F)c3)cc2-c2cnc([C@@](C)(O)C(F)(F)F)n21", "note": "[Example 86]", "IC50": 16}, {"smiles": "C[C@H]1Cn2c(nnc2C(F)(F)c2ccc(C(F)(F)F)cn2)-c2cnc([C@@](C)(O)C(F)(F)F)n21", "note": "[Example 87]", "IC50": 8.7}, {"smiles": "C[C@H]1Cn2nc(OCCC3(C#N)CC3)cc2-c2cnc([C@@](C)(O)C(F)(F)F)n21", "note": "[Example 88]", "IC50": 17}, {"smiles": "C[C@H]1Cn2c(nnc2C2(c3ccc(Cl)cc3)COC2)-c2cnc([C@@](C)(O)C(F)(F)F)n21", "note": "[Example 89]", "IC50": 8.8}, {"smiles": "C[C@H]1Cn2c(nnc2C(C)(F)F)-c2cnc([C@@](C)(O)C(F)(F)F)n21", "note": "[Example 90]", "IC50": 15}, {"smiles": "C[C@H]1Cn2c(nnc2C(C)(C)F)-c2cnc([C@@](C)(O)C(F)(F)F)n21", "note": "[Example 91]", "IC50": 11}, {"smiles": "C[C@H]1Cn2c(nnc2C(O)(C(F)(F)F)C(F)(F)F)-c2cnc([C@@](C)(O)C(F)(F)F)n21", "note": "[Example 92]", "IC50": 16}, {"smiles": "COC(c1nnc2n1C[C@H](C)n1c-2cnc1[C@@](C)(O)C(F)(F)F)(C(F)(F)F)C(F)(F)F", "note": "[Example 93]", "IC50": 21}, {"smiles": "C[C@H]1Cc2cc(C#N)ccc2-c2cnc([C@@](C)(O)C(F)(F)F)n21", "note": "[Example 94]", "IC50": 8.6}, {"smiles": "C[C@H]1Cn2nc(Oc3ccc(C#N)nc3)cc2-c2cnc([C@@](C)(O)C(F)(F)F)n21", "note": "[Example 95]", "IC50": 18}, {"smiles": "C[C@H]1Cn2nc(OCCOC(F)F)cc2-c2cnc([C@@](C)(O)C(F)(F)F)n21", "note": "[Example 96]", "IC50": 13}]}]}
